Reference: US20180311238A1, “Selective Agonist Of a6 Containing nAChRs” (Saniona A/S, priority 2017, published 2018)

What was measured:
[1] = tested on: primary dopaminergic neuronal culture; assay: Primary dopaminergic neuronal culture injured by MPP+, number of TH positive neurons; format: cell-based, rat; details: MPP+ 4 μM, 48H; compound 1 nM to 1 μM added 1H before intoxication
Description: Pregnant female Wistar rats of 15 days gestation was euthanized by cervical dislocation and the foetuses was removed from the uterus. Hereafter, the embryonic midbrains was removed and placed in ice-cold medium of Leibovitz containing 2% of Penicillin-Streptomycin and 1% of bovine serum albumin (BSA). Only the ventral portions of the mesencephalic flexure were used for the cell preparations as this is the region of the developing brain rich in dopaminergic neurons. The midbrains were dissociated by trypsinisation for 20 min at 37° C. (Trypsin EDTA 1X). The reaction was stopped by the addition of DULBECCO′S MODIFIED Eagle's medium (DMEM) containing DNAse I grade II (0.1 mg/ml) and 10% foetal calf serum (FCS). Cells were then mechanically dissociated by 3 passages through a 10 ml pipette. Cells was then centrifuged at 180×g for 10 min at 4° C. on a layer of BSA (3.5%) in L15 medium. The supernatant was discarded, and the cells of pellet were re-suspended in a defined culture medium consisting of Neurobasal supplemented with B27 (2%), L-glutamine (2 mM) and 2% of PS solution and 10 ng/ml BDNF and 1 ng/ml of Glial cell-derived neurotrophic factor (GDNF). Viable cells were counted in a Neunauer cytometer using the tryphan blue exclusion test. […]
Half of the medium was changed every 2 days with fresh medium. […] Following an additional 48H of incubation, the number of TH positive neurons were counted. […]

[2] = tested on: reserpine-induced tremors; assay: Reserpine-induced tremors in rats (tremor monitor power spectra); format: in vivo, rat; details: reserpine 1 mg/kg i.v.; compound 0.1 and 1.0 mg/kg s.c.; L-DOPA 100 mg/kg i.p. + benserazide
Description: Parkinson's disease is associated with severe dopamine deficiency caused by neurodegeneration of dopaminergic cell bodies residing in Substantia Nigra pars compacta. As alpha6 nAChRs are enriched in the nigrostriatal dopamine pathway, activating this receptor may ameliorate symptoms in nigro-striatal dopamine deficiency models. Reserpine injections to rodents result in depletion of monoamines in the nigro-striatal dopamine pathway, resulting in catalepsy and tremors. Both behaviours can be quantified using dedicated tremor boxes.
Six groups of male Sprague Dawley rats (250-300 grams) were subjected to the following treatment schedules, and effects on power spectra, assessed in automated tremor monitors were evaluated for 30 minutes: • Vehicle+vehicle • Vehicle+reserpine (1 mg/kg) • 9-Methyl-3-pyridin-3-yl-3,9-diaza-bicyclo[3.3.1]nonane (0.1 mg/kg)+reserpine (1 mg/kg) • 9-Methyl-3-pyridin-3-yl-3,9-diaza-bicyclo[3.3.1]nonane (1.0 mg/kg)+reserpine (1 mg/kg) • L-DOPA (100 mg/kg)+reserpine (1 mg/kg) • 9-Methyl-3-pyridin-3-yl-3,9-diaza-bicyclo[3.3.1]nonane (1.0 mg/kg)+L-DOPA (100 mg/kg)+reserpine (1 mg/kg)
Reserpine was pre-treated i.v. 60 minutes prior to test start in a dose volume of 2 ml/kg. 9-Methyl-3-pyridin-3-yl-3,9-diaza-bicyclo[3.3.1]nonane was pre-treated s.c. 45 minutes prior to test start in a dose volume of 1 ml/kg. The dose of 9-methyl-3-pyridin-3-yl-3,9-diaza-bicyclo[3.3.1]nonane was based on 3H-epibatidin displacement studies showing half maximal displacement of specific binding of 3H-epibatidin in doses equaling 0.15 mg/kg in rats. L-DOPA was pre-treated i.p. 30 minutes prior to test start in a dose volume of 5 ml/kg. […] All animals dosed with L-DOPA was also dosed with the peripherally acting decarboxylase inhibitor Benserazide to prevent the peripheral break down of L-DOPA (benserazide: 50 mg/kg, s.c., 30 min. prior to test start in a dose volume of 1 ml/kg).

[3] = biological target: T1, human α4β2 nicotinic receptors (Homo sapiens, UniProt P17787+P43681); assay: FLIPR fluorescence-based calcium assay, α4β2; format: cell-based; details: FLIPR calcium response relative to nicotine
T1 construct: expressed in transfected cells
Description: The level of agonist activity of 9-methyl-3-pyridin-3-yl-3,9-diaza-bicyclo[3.3.1]nonane was tested in functional fluorescence-based calcium assays using TE671 cells and HEK293 cells stably expressing human α6/α3β2β3^V273S, α3β4 and α4β2 nicotinic receptors.
Cells were plated on poly-D-lysine coated 384-well microtiter plates and were allowed to proliferate for 24 h. Dye loading was performed by incubating cells with 2 μM fluo-4/AM for 1.5 h at room temperature. Dye not taken up by cells was removed by aspiration followed by three washing cycles with 25 μl of NMDG Ringer buffer (in mM: 140 NMDG, 5 KCl, 1 MgCl2, 10 CaCl2, 10 HEPES, pH 7.4) after which the cells were kept in 25 μl of the same buffer. The microtiter plates were placed in a Fluoremetric Imaging Plate Reader (FLIPR) and subjected to test compound at various concentrations. Background subtracted compound-mediated calcium responses were normalized to 100 μM nicotine control responses and pEC50 as well as relative maximal efficacy values were determined.

T1 sequence (P43681 29-627 limits assumed): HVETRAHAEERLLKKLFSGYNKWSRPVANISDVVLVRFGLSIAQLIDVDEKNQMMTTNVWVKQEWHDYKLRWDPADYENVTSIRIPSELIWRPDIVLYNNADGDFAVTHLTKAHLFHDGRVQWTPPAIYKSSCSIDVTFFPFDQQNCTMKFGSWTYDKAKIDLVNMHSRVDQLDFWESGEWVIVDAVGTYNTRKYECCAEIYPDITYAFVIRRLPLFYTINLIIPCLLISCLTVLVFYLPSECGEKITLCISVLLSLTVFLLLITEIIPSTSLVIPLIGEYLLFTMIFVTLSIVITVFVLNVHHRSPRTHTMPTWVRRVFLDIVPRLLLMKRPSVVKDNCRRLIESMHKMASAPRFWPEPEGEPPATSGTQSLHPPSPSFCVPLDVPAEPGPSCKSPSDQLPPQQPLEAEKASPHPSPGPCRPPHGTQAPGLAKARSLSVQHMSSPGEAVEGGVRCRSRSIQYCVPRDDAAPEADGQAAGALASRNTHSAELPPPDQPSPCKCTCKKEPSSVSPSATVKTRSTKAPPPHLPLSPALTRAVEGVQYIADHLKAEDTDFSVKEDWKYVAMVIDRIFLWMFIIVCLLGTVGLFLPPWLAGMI
T1 sequence (P17787 26-502): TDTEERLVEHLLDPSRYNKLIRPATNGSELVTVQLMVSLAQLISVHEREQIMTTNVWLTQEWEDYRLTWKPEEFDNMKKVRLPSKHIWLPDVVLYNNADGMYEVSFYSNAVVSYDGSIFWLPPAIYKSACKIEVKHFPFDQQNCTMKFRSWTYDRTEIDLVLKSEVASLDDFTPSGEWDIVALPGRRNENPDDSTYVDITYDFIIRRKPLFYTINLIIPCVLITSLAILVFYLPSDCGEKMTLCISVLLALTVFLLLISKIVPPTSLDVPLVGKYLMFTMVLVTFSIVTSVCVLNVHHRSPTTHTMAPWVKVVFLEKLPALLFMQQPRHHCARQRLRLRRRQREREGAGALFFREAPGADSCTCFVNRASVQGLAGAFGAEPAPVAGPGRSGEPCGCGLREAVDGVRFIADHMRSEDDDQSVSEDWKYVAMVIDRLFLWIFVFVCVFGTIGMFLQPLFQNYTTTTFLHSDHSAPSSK

## CN1C2CCCC1CN(c1cccnc1)C2 [9-methyl-3-pyridin-3-yl-3,9-diaza-bicyclo[3.3.1]nonane]
[1]
  neuroprotective effect, number of TH positive neurons: concentration-dependent neuroprotective effect
[2]
  effect on reserpine-induced tremors, AUC 40-63 Hz: dose-related reversal of reserpine tremors reaching statistical significance at 1.0 mg/kg
  reversal of reserpine-induced reduction of low frequency movements (catalepsy), AUC 3-13 Hz: Neither threshold dose of L-DOPA, nor 9-methyl-3-pyridin-3-yl-3,9-diaza-bicyclo[3.3.1]nonane or the combination of the two, was able to reverse this reduction
[3]
  efficacy: practically no efficacy
